Test results as given in ChEMBL document CHEMBL3352578 (J Med Chem, 2014).
Calls of active or inactive are those of the source. The calls are words filed in the database; no cut-off is given here.

What was measured:
hERG (KCNH2) = hERG (KCNH2) (Homo sapiens, UniProt Q12809); assay: Inhibition of human ERG channel transfected in HEK293 cells at 3 uM by patch clamp technique; format: cell-based; settings: HEK293 cells transfected with human ERG channel
Rattus norvegicus [1] = assay: Positive allosteric modulation of mGlu2 receptor in Sprague-Dawley rat sleep-wake EEG paradigm model assessed as effect on active wake stage at 3 mg/kg, po after 4 hrs by electroencephalogram analysis; format: functional, organism-based; design: dose 3 mg/kg
Rattus norvegicus [2] = assay: Positive allosteric modulation of mGlu2 receptor in Sprague-Dawley rat sleep-wake EEG paradigm model assessed as effect on deep sleep stage at 3 mg/kg, po after 4 hrs by electroencephalogram analysis; format: functional, organism-based; design: dose 3 mg/kg
[3] = Metabolic stability in human liver microsomes assessed as compound metabolized at 5 uM after 15 mins by MS/MS analysis in presence of NADPH; format: ADME; settings: read-out: Drug metabolism
[4] = Oral bioavailability in Sprague-Dawley rat at 10 mg/kg; format: ADME, organism-based; settings: in vivo
[5] = target: T1, Metabotropic glutamate receptor 2 (Homo sapiens, UniProt Q14416); assay: Positive allosteric modulation of human mGlu2 receptor expressed in CHO cells assessed as potentiation of glutamate-induced effect incubated for 30 mins prior to [35S]GTPgamma addition measured after 30 mins relative to glutamate; format: functional, cell-based
Target sequence in this assay (Q14416 19-872 limits assumed): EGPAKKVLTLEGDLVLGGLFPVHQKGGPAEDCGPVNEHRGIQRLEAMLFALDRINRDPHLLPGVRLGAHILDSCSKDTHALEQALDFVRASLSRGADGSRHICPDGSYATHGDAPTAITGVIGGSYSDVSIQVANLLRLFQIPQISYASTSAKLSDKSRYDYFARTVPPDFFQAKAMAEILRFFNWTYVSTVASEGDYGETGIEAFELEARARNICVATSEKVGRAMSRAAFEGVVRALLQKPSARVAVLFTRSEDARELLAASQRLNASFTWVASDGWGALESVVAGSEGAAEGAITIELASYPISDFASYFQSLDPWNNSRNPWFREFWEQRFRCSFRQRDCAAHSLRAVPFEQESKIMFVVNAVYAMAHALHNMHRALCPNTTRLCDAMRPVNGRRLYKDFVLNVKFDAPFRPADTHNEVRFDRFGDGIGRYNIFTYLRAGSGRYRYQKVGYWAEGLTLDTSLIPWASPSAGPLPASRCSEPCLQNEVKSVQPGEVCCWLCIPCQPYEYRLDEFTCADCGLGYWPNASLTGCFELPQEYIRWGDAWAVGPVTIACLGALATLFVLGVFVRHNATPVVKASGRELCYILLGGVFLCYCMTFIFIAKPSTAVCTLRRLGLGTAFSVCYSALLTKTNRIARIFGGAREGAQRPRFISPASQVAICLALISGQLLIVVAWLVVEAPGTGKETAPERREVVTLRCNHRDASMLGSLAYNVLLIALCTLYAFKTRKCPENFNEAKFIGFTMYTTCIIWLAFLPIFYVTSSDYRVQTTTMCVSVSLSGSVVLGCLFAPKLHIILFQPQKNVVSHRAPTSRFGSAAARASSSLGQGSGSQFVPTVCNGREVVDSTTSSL

[6] = Ratio of drug level in brain to plasma in Swiss mouse at 10 mg/kg, sc after 1 hr; format: ADME, organism-based; design: dose 10 mg/kg, route subcutaneous; settings: brain and plasma, read-out: BPR
Rattus norvegicus [7] = assay: Positive allosteric modulation of mGlu2 receptor in Sprague-Dawley rat sleep-wake EEG paradigm model assessed as reduction in REM sleep at 3 mg/kg, po after 4 hrs by electroencephalogram analysis; format: functional, organism-based; design: dose 3 mg/kg
[8] = Cmax in Sprague-Dawley rat at 10 mg/kg, po; format: ADME, organism-based; design: dose 10 mg/kg, route oral; settings: in vivo
Rattus norvegicus [9] = assay: Positive allosteric modulation of mGlu2 receptor in po dosed Sprague-Dawley rat assessed effect on sleep-wake EEG paradigm after 20 hrs by electroencephalogram analysis; format: functional
[10] = AUC (0 to infinity) in Sprague-Dawley rat at 10 mg/kg, po; format: ADME, organism-based; design: time infinity, dose 10 mg/kg, route oral; settings: plasma
Rattus norvegicus [11] = assay: Positive allosteric modulation of mGlu2 receptor in Sprague-Dawley rat sleep-wake EEG paradigm model assessed as effect on passive wake stage at 3 mg/kg, po after 4 hrs by electroencephalogram analysis; format: functional, organism-based; design: dose 3 mg/kg
[12] = Clearance in Sprague-Dawley rat at 2.5 mg/kg, iv; format: ADME, organism-based; design: dose 2.5 mg/kg, route intravenous; settings: in vivo
[13] = Metabolic stability in rat liver microsomes assessed as compound metabolized at 5 uM after 15 mins by MS/MS analysis in presence of NADPH; format: ADME; settings: read-out: Drug metabolism
[14] = Tmax in Sprague-Dawley rat at 2.5 mg/kg, iv; format: ADME, organism-based; design: dose 2.5 mg/kg, route intravenous; settings: in vivo
[15] = Elimination half life in Sprague-Dawley rat at 2.5 mg/kg, iv; format: ADME, organism-based; design: dose 2.5 mg/kg, route intravenous; settings: in vivo, read-out: beta t1/2 (converted)
Rattus norvegicus [16] = assay: Positive allosteric modulation of mGlu2 receptor in Sprague-Dawley rat sleep-wake EEG paradigm model assessed as effect on intermediate state at 3 mg/kg, po after 4 hrs by electroencephalogram analysis; format: functional, organism-based; design: dose 3 mg/kg
Rattus norvegicus [17] = assay: Positive allosteric modulation of mGlu2 receptor in Sprague-Dawley rat sleep-wake EEG paradigm model assessed as effect on light sleep stage at 3 mg/kg, po after 4 hrs by electroencephalogram analysis; format: functional, organism-based; design: dose 3 mg/kg
[18] = target: T1, Metabotropic glutamate receptor 2; assay: Positive allosteric modulation of human mGlu2 receptor expressed in CHO cells assessed as potentiation of glutamate-induced effect incubated for 30 mins prior to [35S]GTPgamma addition measured after 30 mins; format: functional, cell-based
Target sequence in this assay (Q14416 whole entry): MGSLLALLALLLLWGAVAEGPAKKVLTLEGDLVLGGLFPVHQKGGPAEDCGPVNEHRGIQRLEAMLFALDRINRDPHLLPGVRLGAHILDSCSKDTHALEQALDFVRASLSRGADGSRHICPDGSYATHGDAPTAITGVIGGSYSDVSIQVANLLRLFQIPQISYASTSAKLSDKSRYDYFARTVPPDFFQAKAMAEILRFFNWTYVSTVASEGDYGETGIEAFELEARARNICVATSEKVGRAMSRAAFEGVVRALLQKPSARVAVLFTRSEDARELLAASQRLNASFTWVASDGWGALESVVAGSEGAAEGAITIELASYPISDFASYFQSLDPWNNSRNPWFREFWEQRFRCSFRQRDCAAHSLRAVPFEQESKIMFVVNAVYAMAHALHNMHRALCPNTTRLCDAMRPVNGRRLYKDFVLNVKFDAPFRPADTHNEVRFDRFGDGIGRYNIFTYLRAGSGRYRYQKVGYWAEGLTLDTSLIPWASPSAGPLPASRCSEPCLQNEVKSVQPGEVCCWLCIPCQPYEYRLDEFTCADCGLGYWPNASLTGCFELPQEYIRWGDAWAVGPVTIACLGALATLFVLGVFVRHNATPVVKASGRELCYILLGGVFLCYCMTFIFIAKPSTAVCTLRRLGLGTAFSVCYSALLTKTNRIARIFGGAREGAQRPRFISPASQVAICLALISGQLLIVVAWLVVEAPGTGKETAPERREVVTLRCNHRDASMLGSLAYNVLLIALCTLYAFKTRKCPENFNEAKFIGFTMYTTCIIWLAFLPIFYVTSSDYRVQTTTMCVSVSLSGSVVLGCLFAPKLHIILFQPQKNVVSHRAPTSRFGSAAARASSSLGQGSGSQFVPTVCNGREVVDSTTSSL

hERG (KCNH2), sequence (Q12809 whole entry): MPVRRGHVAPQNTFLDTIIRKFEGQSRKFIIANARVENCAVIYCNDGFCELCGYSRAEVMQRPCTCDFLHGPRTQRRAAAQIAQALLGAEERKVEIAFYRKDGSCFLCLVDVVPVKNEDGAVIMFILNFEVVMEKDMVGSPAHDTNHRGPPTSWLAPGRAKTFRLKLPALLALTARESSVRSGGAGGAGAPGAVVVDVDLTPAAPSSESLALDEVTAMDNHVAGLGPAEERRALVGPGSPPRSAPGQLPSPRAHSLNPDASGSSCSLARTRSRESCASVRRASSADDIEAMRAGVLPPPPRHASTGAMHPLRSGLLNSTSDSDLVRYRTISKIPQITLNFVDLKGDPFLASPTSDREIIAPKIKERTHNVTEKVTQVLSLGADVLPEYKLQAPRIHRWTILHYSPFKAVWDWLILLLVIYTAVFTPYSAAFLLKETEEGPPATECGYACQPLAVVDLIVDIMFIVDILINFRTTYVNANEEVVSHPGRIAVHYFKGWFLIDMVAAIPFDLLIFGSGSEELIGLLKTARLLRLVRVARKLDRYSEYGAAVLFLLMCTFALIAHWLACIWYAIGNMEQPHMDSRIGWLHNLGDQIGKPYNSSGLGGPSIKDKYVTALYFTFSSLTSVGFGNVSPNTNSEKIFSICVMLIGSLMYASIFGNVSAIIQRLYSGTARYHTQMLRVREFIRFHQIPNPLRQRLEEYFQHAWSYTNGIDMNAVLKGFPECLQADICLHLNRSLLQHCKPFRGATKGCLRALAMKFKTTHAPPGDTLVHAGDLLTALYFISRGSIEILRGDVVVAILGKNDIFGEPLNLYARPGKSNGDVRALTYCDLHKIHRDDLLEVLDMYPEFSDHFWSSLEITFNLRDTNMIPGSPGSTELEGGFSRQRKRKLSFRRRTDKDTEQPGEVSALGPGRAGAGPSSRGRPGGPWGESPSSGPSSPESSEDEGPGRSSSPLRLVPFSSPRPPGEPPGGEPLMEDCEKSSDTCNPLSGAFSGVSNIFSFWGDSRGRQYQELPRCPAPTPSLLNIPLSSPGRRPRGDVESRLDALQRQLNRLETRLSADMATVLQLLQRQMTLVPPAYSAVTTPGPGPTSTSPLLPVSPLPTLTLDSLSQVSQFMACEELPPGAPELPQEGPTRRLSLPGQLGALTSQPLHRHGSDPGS

| SMILES | inhibition at 3 µM (hERG (KCNH2)) | metabolised at 0.25 h, 5 µM [3] | Emax [5] | metabolised at 0.25 h, 5 µM [13] | EC50 [18] | other results |
| --- | --- | --- | --- | --- | --- | --- |
| CC(C)Cn1ccc(N2CCC(c3ccccc3)CC2)c(Cl)c1=O | 24% | 12% | 260% | 31% |  | Activity (Rattus norvegicus [1]): inactive; Activity (Rattus norvegicus [2]): inactive; bioavailability [4]: 25%; Kp at 1 h [6]: 0.8; Activity (Rattus norvegicus [7]): Active; Cmax [8]: 1360 ng/mL; MEC (Rattus norvegicus [9]): 407 ng/mL; minimal effective dose (Rattus norvegicus [9]; Rattus norvegicus, Sprague-Dawley, po, 20 h, read-out: MED): 3 mg/kg; AUC(0-inf) [10]: 3460 ng·h/mL; Activity (Rattus norvegicus [11]): inactive; clearance [12]: 13 mL/min/kg; Tmax [14]: 0.7 h; half-life [15]: 2.6 h; Activity (Rattus norvegicus [16]): inactive; Activity (Rattus norvegicus [17]): inactive |
| N#Cc1c(N2CCC(c3ccccc3Cl)CC2)ccn(CC2CC2)c1=O |  | 22% | 259% | 34% | 49 nM |  |
| CC(C)CCn1ccc(OCc2ccccc2)c(C#N)c1=O |  | 22% | 173% | 90% | 2950 nM |  |
| CC(C)CCn1ccc(CCc2ccccc2)c(C#N)c1=O |  | 91% | 168% | 99% | 361 nM |  |
| N#Cc1c(N2CCC(c3cccc(C(F)(F)F)c3)CC2)ccn(CC2CC2)c1=O | 97% | 35% | 191% | 39% | 46 nM |  |
| O=c1c(C(F)(F)F)c(N2CCC(c3ccccc3)CC2)ccn1CC1CC1 |  | 33% | 239% | 89% |  |  |
| N#Cc1c(N2CCC(c3ccc(Cl)cc3)CC2)ccn(CC2CC2)c1=O |  | 28% | 249% | 21% | 48 nM |  |
| N#Cc1c(N2CCC(c3c(F)cccc3F)CC2)ccn(CC2CC2)c1=O | 86% | 18% | 291% | 42% | 31 nM |  |
| CC(C)CCn1ccc(N2CCN(Cc3ccccc3)CC2)c(C#N)c1=O |  | 38% | 304% | 85% | 4680 nM |  |
| CCCCn1ccc(N2CCC(c3ccccc3)CC2)c(C#N)c1=O |  | 30% | 309% | 62% | 95 nM |  |
| N#Cc1c(N2CCC(c3ccccc3F)CC2)ccn(CC2CC2)c1=O | 75% | 30% | 282% | 42% | 81 nM |  |
| N#Cc1c(N2CCC(c3cc(F)cc(F)c3)CC2)ccn(CC2CC2)c1=O | 95% | 30% | 234% | 45% | 151 nM |  |
| N#Cc1c(N2CCC(c3ccccc3)CC2)ccn(CC2CCC2)c1=O |  | 46% | 269% | 86% | 55 nM |  |
| N#Cc1c(N2CCC(c3ccc(F)cc3)CC2)ccn(CC2CC2)c1=O | 89% | 31% | 258% | 36% | 89 nM |  |
| CC(C)CCn1ccc(N2CCCC(c3ccccc3)C2)c(C#N)c1=O (stereo not drawn) |  | 80% | 231% | 98% | 3310 nM |  |
| N#Cc1c(N2CCC(c3ccc(F)cc3F)CC2)ccn(CC2CC2)c1=O |  | 17% | 272% | 34% | 68 nM |  |
